In US9040545B2, “Heterocyclyl pyrazolopyrimidine analogues as selective JAK inhibitors” (Cellzome Limited, priority 2010, dated 2015):

Target: T1, JAK3 (Homo sapiens, UniProt P52333)
T1 construct: endogenous in cells; host or cells: mixed Molt4/Ramos lysate (1:2)
T1 sequence (P52333 1-1124): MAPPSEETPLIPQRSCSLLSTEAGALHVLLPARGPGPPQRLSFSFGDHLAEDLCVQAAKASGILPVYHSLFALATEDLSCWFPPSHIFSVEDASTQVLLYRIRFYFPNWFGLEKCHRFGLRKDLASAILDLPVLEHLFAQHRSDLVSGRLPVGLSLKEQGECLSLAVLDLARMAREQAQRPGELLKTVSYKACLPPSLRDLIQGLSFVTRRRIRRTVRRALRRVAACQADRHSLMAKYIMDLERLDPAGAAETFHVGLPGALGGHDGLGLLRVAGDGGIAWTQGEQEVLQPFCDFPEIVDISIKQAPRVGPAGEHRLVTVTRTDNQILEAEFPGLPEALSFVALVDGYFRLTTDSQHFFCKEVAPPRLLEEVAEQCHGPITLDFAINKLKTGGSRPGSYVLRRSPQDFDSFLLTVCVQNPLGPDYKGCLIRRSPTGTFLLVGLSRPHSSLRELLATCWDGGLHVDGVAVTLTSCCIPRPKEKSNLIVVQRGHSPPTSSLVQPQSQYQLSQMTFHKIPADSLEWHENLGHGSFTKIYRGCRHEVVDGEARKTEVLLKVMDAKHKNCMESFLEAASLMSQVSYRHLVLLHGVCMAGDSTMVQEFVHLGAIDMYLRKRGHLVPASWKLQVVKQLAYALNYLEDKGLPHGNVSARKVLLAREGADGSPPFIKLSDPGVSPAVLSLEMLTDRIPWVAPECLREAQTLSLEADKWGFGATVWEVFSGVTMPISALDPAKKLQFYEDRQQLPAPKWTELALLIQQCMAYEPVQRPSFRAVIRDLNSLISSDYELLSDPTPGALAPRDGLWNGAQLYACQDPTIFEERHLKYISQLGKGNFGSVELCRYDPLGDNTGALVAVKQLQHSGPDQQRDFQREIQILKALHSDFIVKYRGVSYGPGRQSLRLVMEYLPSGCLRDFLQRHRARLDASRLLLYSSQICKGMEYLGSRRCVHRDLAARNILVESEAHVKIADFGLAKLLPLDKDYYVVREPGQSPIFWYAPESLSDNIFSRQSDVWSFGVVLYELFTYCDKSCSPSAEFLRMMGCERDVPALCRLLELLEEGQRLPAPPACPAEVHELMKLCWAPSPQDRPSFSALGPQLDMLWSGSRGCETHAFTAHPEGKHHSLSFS
Test: Kinobeads assay, JAK3
Format: binding
Conditions: mixed Molt4/Ramos lysate, read-out: Inhibition values (IC50) JAK3
In short: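 IC50 values come from dose-response curves of JAK2/JAK3 captured on immobilized aminopyrido-pyrimidine beads, quantified by antibody dot blot with infrared read-out. Compounds (1:3 series, 9 steps, from 5 mM DMSO stock) competed for 3 h in the cold with mixed Molt4/Ramos lysate (1:2, 10 mg/mL protein).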

| IC50 [µM] | SMILES |
| --- | --- |
| < 0.1 | O=C1COCCN1c1cc(F)c(F)c(Cn2ncc3cnc(Nc4cnn(CCO)c4)nc32)c1 [Example 59, 4-(3,4-Difluoro-5-((6-((1-(2-hydroxyethyl)-1H-pyrazol-4-yl)amino)-1H-pyrazolo[3,4-d]pyrimidin-1-yl)methyl)phenyl)morpholin-3-one] |
| < 0.1 | c1cc(Cn2ncc3cnc(Nc4cnn(CC5CCNC5)c4)nc32)cc(N2CCOCC2)c1 (stereo not shown) [Example 60, 1-(3-Morpholinobenzyl)-N-(1-(pyrrolidin-3-ylmethyl)-1H-pyrazol-4-yl)-1H-pyrazolo[3,4-d]pyrimidin-6-amine] |
| < 0.1 | Cn1cc(Nc2ncc3cnn(Cc4c(F)c(F)cc(N5CCOCC5=O)c4F)c3n2)cn1 [Example 61, 4-(2,4,5-Trifluoro-3-((6-((1-methyl-1H-pyrazol-4-yl)amino)-1H-pyrazolo[3,4-d]pyrimidin-1-yl)methyl)phenyl)morpholin-3-one] |
| < 0.1 | O=C1COCCN1c1cc(F)c(F)c(Cn2ncc3cnc(Nc4cnn(CCO)c4)nc32)c1F [Example 62, 4-(2,4,5-Trifluoro-3-((6-((1-(2-hydroxyethyl)-1H-pyrazol-4-yl)amino)-1H-pyrazolo[3,4-d]pyrimidin-1-yl)methyl)phenyl)morpholin-3-one] |
| < 0.1 | O=C1CNCCN1c1cc(F)cc(Cn2ncc3cnc(Nc4cnn(CCO)c4)nc32)c1 [Example 63, 1-(3-Fluoro-5-((6-((1-(2-hydroxyethyl)-1H-pyrazol-4-yl)amino)-1H-pyrazolo[3,4-d]pyrimidin-1-yl)methyl)phenyl)piperazin-2-one] |
| < 0.1 | Cn1cc(Nc2ncc3cnn(Cc4cc(F)cc(N5CCNCC5=O)c4)c3n2)cn1 [Example 64, 1-(3-Fluoro-5-((6-((1-methyl-1H-pyrazol-4-yl)amino)-1H-pyrazolo[3,4-d]pyrimidin-1-yl)methyl)phenyl)piperazin-2-one] |
| < 0.1 | COC1CN(c2cccc(Cn3ncc4cnc(Nc5cnn(C)c5)nc43)c2)C1 [Example 65, 1-(3-(3-Methoxyazetidin-1-yl)benzyl)-N-(1-methyl-1H-pyrazol-4-yl)-1H-pyrazolo[3,4-d]pyrimidin-6-amine] |
| < 0.1 | Cn1cc(Nc2ncc3cnn(Cc4c(F)c(F)cc(N5CCNCC5)c4F)c3n2)cn1 [Example 66, N-(1-Methyl-1H-pyrazol-4-yl)-1-(2,3,6-trifluoro-5-(piperazin-1-yl)benzyl)-1H-pyrazolo[3,4-d]pyrimidin-6-amine] |
| < 0.1 | Cn1cc(Nc2ncc3cnn(Cc4cccc(N5CCNCC5)c4F)c3n2)cn1 [Example 67, 1-(2-Fluoro-3-(piperazin-1-yl)benzyl)-N-(1-methyl-1H-pyrazol-4-yl)-1H-pyrazolo[3,4-d]pyrimidin-6-amine] |
| < 0.1 | CNC(=O)Cn1cc(Nc2ncc3cnn(Cc4cc(F)cc(N5CCOCC5=O)c4)c3n2)cn1 [Example 68, 2-(4-((1-(3-Fluoro-5-(3-oxomorpholino)benzyl)-1H-pyrazolo[3,4-d]pyrimidin-6-yl)amino)-1H-pyrazol-1-yl)-N-methylacetamide] |
| < 0.1 | Cn1cc(Nc2ncc3cnn(Cc4c(F)ccc(N5CCOCC5=O)c4F)c3n2)cn1 [Example 69, 4-(2,4-Difluoro-3-((6-((1-methyl-1H-pyrazol-4-yl)amino)-1H-pyrazolo[3,4-d]pyrimidin-1-yl)methyl)phenyl)morpholin-3-one] |

Second part, the molecule before the results:

| SMILES | IC50 [µM] |
| --- | --- |
| CN(C)CCCn1cc(Nc2ncc3cnn(Cc4c(F)c(F)cc(N5CCOCC5)c4F)c3n2)cn1 [Example 42, N-(1-(3-(Dimethylamino)propyl)-1H-pyrazol-4-yl)-1-(2,3,6-trifluoro-5-morpholinobenzyl)-1H-pyrazolo[3,4-d]pyrimidin-6-amine] | < 0.1 |
| CN(C)CCCn1cc(Nc2ncc3cnn(Cc4cccc(N5CCOCC5)c4F)c3n2)cn1 [Example 43, N-(1-(3-(Dimethylamino)propyl)-1H-pyrazol-4-yl)-1-(2-fluoro-3-morpholinobenzyl)-1H-pyrazolo[3,4-d]pyrimidin-6-amine] | < 0.1 |
| OCCn1cc(Nc2ncc3cnn(Cc4cc(N5CCOCC5)ccc4F)c3n2)cn1 [Example 44, 2-(4-((1-(2-Fluoro-5-morpholinobenzyl)-1H-pyrazolo[3,4-d]pyrimidin-6-yl)amino)-1H-pyrazol-1-yl)ethanol] | < 0.1 |
| OCCn1cc(Nc2ncc3cnn(Cc4c(F)c(F)cc(N5CCOCC5)c4F)c3n2)cn1 [Example 45, 2-(4-((1-(2,3,6-Trifluoro-5-morpholinobenzyl)-1H-pyrazolo[3,4-d]pyrimidin-6-yl)amino)-1H-pyrazol-1-yl)ethanol] | < 0.1 |
| O=C1COCCN1c1cccc(Cn2ncc3cnc(Nc4cnn(CCO)c4)nc32)c1F [Example 46, 4-(2-Fluoro-3-((6-((1-(2-hydroxyethyl)-1H-pyrazol-4-yl)amino)-1H-pyrazolo[3,4-d]pyrimidin-1-yl)methyl)phenyl)morpholin-3-one] | < 0.1 |
| OCCn1cc(Nc2ncc3cnn(Cc4cccc(N5CCNCC5)c4)c3n2)cn1 [Example 47, 2-(4-((1-(3-(piperazin-1-yl)benzyl)-1H-pyrazolo[3,4-d]pyrimidin-6-yl)amino)-1H-pyrazol-1-yl)ethanol] | < 0.1 |
| c1cc(Cn2ncc3cnc(Nc4cnn(CC5CCCNC5)c4)nc32)cc(N2CCOCC2)c1 (stereo not shown) [Example 48, 1-(3-Morpholinobenzyl)-N-(1-(piperidin-3-ylmethyl)-1H-pyrazol-4-yl)-1H-pyrazolo[3,4-d]pyrimidin-6-amine] | < 0.1 |
| Cn1cc(Nc2ncc3cnn(Cc4cc(F)cc(N5CCOCC5)c4)c3n2)cn1 [Example 49, 1-(3-Fluoro-5-morpholinobenzyl)-N-(1-methyl-1H-pyrazol-4-yl)-1H-pyrazolo[3,4-d]pyrimidin-6-amine] | < 0.1 |
| CN(C)CCCn1cc(Nc2ncc3cnn(Cc4cccc(N5CCOCC5=O)c4F)c3n2)cn1 [Example 50, 4-(3-((6-((1-(3-(Dimethylamino)propyl)-1H-pyrazol-4-yl)amino)-1H-pyrazolo[3,4-d]pyrimidin-1-yl)methyl)-2-fluorophenyl)morpholin-3-one] | < 0.1 |
| OCCn1cc(Nc2ncc3cnn(Cc4cc(F)cc(N5CCOCC5)c4)c3n2)cn1 [Example 51, 2-(4-((1-(3-Fluoro-5-morpholinobenzyl)-1H-pyrazolo[3,4-d]pyrimidin-6-yl)amino)-1H-pyrazol-1-yl)ethanol] | < 0.1 |
| Cn1cc(Nc2ncc3cnn(Cc4cc(F)cc(N5CCOCC5=O)c4)c3n2)cn1 [Example 52, 4-(3-Fluoro-5-((6-((1-methyl-1H-pyrazol-4-yl)amino)-1H-pyrazolo[3,4-d]pyrimidin-1-yl)methyl)phenyl)morpholin-3-one] | < 0.1 |
| Cn1cc(Nc2ncc3cnn(Cc4cc(N5CCOCC5=O)cc(F)c4F)c3n2)cn1 [Example 53, 4-(3,4-Difluoro-5-((6-((1-methyl-1H-pyrazol-4-yl)amino)-1H-pyrazolo[3,4-d]pyrimidin-1-yl)methyl)phenyl)morpholin-3-one] | < 0.1 |
| Cn1cc(Nc2ncc3cnn(Cc4cccc(N5CCNCC5=O)c4F)c3n2)cn1 [Example 54, 1-(2-Fluoro-3-((6-((1-methyl-1H-pyrazol-4-yl)amino)-1H-pyrazolo[3,4-d]pyrimidin-1-yl)methyl)phenyl)piperazin-2-one] | < 0.1 |
| O=C1CNCCN1c1cccc(Cn2ncc3cnc(Nc4cnn(CCO)c4)nc32)c1F [Example 55, 1-(2-Fluoro-3-((6-((1-(2-hydroxyethyl)-1H-pyrazol-4-yl)amino)-1H-pyrazolo[3,4-d]pyrimidin-1-yl)methyl)phenyl)piperazin-2-one] | < 0.1 |
| OCCn1cc(Nc2ncc3cnn(Cc4cc(N5CCOCC5)cc(F)c4F)c3n2)cn1 [Example 56, 2-(4-((1-(2,3-Difluoro-5-morpholinobenzyl)-1H-pyrazolo[3,4-d]pyrimidin-6-yl)amino)-1H-pyrazol-1-yl)ethanol] | < 0.1 |
| O=C1CNCCN1c1cccc(Cn2ncc3cnc(Nc4cnn(CCO)c4)nc32)c1 [Example 57, 1-(3-((6-((1-(2-Hydroxyethyl)-1H-pyrazol-4-yl)amino)-1H-pyrazolo[3,4-d]pyrimidin-1-yl)methyl)phenyl)piperazin-2-one] | < 0.1 |
| O=C1COCCN1c1cc(F)cc(Cn2ncc3cnc(Nc4cnn(CCO)c4)nc32)c1 [Example 58, 4-(3-Fluoro-5-((6-((1-(2-hydroxyethyl)-1H-pyrazol-4-yl)amino)-1H-pyrazolo[3,4-d]pyrimidin-1-yl)methyl)phenyl)morpholin-3-one] | < 0.1 |
